Measured values from patent US6069160A, “Heteroatom-containing benzocyclopentane-oxazolidinones” (Bayer Aktiengesellschaft, priority 1995, dated 2000).
Converted amounts (≈) assume the structure as drawn. Where two headings read alike, the source gives them in different places.

Tests used:
Type in all cases: cell-based
Staph. 133 = test: MIC by series dilution method
Protocol: (§1) The minimum inhibitory concentration (MIC) were determined by a series dilution method on Iso-Sensitest agar (Oxoid). For each test substance, a series of agar plates each comprising concentrations of the active compound decreasing by double dilution in each case was prepared. The agar plates were inoculated with a multipoint inoculator (Denley). Overnight cultures of the pathogens which had been diluted beforehand such that each inoculation point comprised about 10^4 colony-forming particles were used for the inoculation. The inoculated agar plates were incubated at 37° C. and the germ growth was read off after about 20 hours. The MIC value (μg/ml) indicates the lowest active compound concentration at which no growth was detectable with the naked eye. […]

Staph. 25701 = test: MIC by series dilution method
Protocol: as §1

Staph. 48N = test: MIC by series dilution method
Protocol: as §1

Staph. 9TV = test: MIC by series dilution method
Protocol: as §1

E. coli Neumann = test: MIC by series dilution method; settings: Escherichia coli
Protocol: (§2) The minimum inhibitory concentration (MIC) were determined by a series dilution method on Iso-Sensitest agar (Oxoid). For each test substance, a series of agar plates each comprising concentrations of the active compound decreasing by double dilution in each case was prepared. The agar plates were inoculated with a multipoint inoculator (Denley). Overnight cultures of the pathogens which had been diluted beforehand such that each inoculation point comprised about 10^4 colony-forming particles were used for the inoculation. The inoculated agar plates were incubated at 37° C. and the germ growth was read off after about 20 hours. The MIC value (μg/ml) indicates the lowest active compound concentration at which no growth was detectable with the naked eye.

Klebs. 57 USA = test: MIC by series dilution method; settings: 37° C., about 20 hours
Protocol: as §2

Psdm. Bonn = test: MIC by series dilution method; settings: 37° C., about 20 hours
Protocol: as §2

[1] = system: Mycobacterium smegmacis DSM 43061; test: MIC in microtiter plates (Mycobacterium); settings: DSM43061, 37° C., 3 to 5 days
Protocol: (§3) The microtiter plates were incubated at 37° C. and read off after about 20 hours (Staph) or after 3 to 5 days (Mycobacterium). The MIC value (μg/ml) indicates the lowest concentration of active substance at which no growth was detectable.

[2] = system: Mycobacterium smegmacis DSM 43078; test: MIC in microtiter plates (Mycobacterium); settings: DSM43078, 37° C., 3 to 5 days
Protocol: as §3

[3] = system: Mycobacterium smegmacis DSM 43277; test: MIC in microtiter plates (Mycobacterium); settings: DSM43277, 37° C., 3 to 5 days
Protocol: as §3

[4] = system: Mycobacterium smegmacis DSM 43299; test: MIC in microtiter plates (Mycobacterium); settings: DSM43299, 37° C., 3 to 5 days
Protocol: as §3

[5] = system: Mycobacterium smegmacis DSM 43464; test: MIC in microtiter plates (Mycobacterium); settings: DSM43464, 37° C., 3 to 5 days
Protocol: as §3

[6] = system: Mycobacterium smegmacis DSM 43465; test: MIC in microtiter plates (Mycobacterium); settings: DSM43465, 37° C., 3 to 5 days
Protocol: as §3

[7] = Staph. 133, 37° C., about 20 hours, read-out: MIC
[8] = Staph. 25701, 37° C., about 20 hours, read-out: MIC
[9] = Staph. 48N, 37° C., about 20 hours, read-out: MIC
[10] = Staph. 9TV, 37° C., about 20 hours, read-out: MIC
[11] = E. coli Neumann, 37° C., about 20 hours, read-out: MIC

| Structure (SMILES) | MIC (Staph. 133; [7]) [µg/mL] | MIC (Staph. 25701; [8]) [µg/mL] | MIC (Staph. 48N; [9]) [µg/mL] | MIC (Staph. 9TV; [10]) [µg/mL] | MIC (E. coli Neumann; 20 h) [µg/mL] | MIC (Klebs. 57 USA) [µg/mL] | MIC (Psdm. Bonn) [µg/mL] | MIC [1] [µg/mL] | MIC [2] [µg/mL] | MIC [3] [µg/mL] | MIC [4] [µg/mL] | MIC [5] [µg/mL] | MIC [6] [µg/mL] | MIC (E. coli Neumann; [11]) [µg/mL] | MIC (Staph. 133; 20 h) [µg/mL] | MIC (Staph. 25701; 20 h) [µg/mL] | MIC (Staph. 48N; 20 h) [µg/mL] | MIC (Staph. 9TV; 20 h) [µg/mL] |
| --- | --- | --- | --- | --- | --- | --- | --- | --- | --- | --- | --- | --- | --- | --- | --- | --- | --- | --- |
| Cn1c(=O)sc2cc(N3C[C@H](CNC(=O)C4CCC4)OC3=O)ccc21 [Example 62] | 1 (≈ 2.77 µM) | 1 (≈ 2.77 µM) | 1 (≈ 2.77 µM) | 0.5 (≈ 1.38 µM) | > 64 | > 64 | > 64 | – | – | – | – | – | – | – | – | – | – | – |
| CC(=O)NC[C@H]1CN(c2ccc3c(c2)oc(=NC(=O)C2CC2)n3C)C(=O)O1 [Example 94] | 0.5 (≈ 1.34 µM) | 0.5 (≈ 1.34 µM) | 0.5 (≈ 1.34 µM) | 0.25 (≈ 0.671 µM) | 64 (≈ 172 µM) | > 64 | > 64 | – | – | – | – | – | – | – | – | – | – | – |
| CCOC(=O)Cn1c(=O)oc2cc(N3C[C@H](CNC(C)=O)OC3=O)ccc21 [Example 39] | 4 (≈ 10.6 µM) | 4 (≈ 10.6 µM) | 4 (≈ 10.6 µM) | 4 (≈ 10.6 µM) | > 64 | > 64 | > 64 | – | – | – | – | – | – | – | – | – | – | – |
| COC(=O)NC[C@H]1CN(c2ccc3c(c2)sc(=O)n3C)C(=O)O1 [Example 70] | 0.5 (≈ 1.48 µM) | 0.5 (≈ 1.48 µM) | 0.5 (≈ 1.48 µM) | 0.5 (≈ 1.48 µM) | > 64 | > 64 | > 64 | 0.25 (≈ 0.741 µM) | 0.125 (≈ 0.371 µM) | 0.5 (≈ 1.48 µM) | 2 (≈ 5.93 µM) | 8 (≈ 23.7 µM) | 1 (≈ 2.96 µM) | – | – | – | – | – |
| Cn1c(=O)sc2cc(N3C[C@H](CNC(=O)C4CC4)OC3=O)ccc21 [Example 54] | – | – | – | – | – | – | – | 4 (≈ 11.5 µM) | 1 (≈ 2.88 µM) | 2 (≈ 5.76 µM) | 4 (≈ 11.5 µM) | 16 (≈ 46.1 µM) | 4 (≈ 11.5 µM) | – | – | – | – | – |
| CCn1c(=O)sc2cc(N3C[C@H](CNC(C)=O)OC3=O)ccc21 [Example 22] | 1 (≈ 2.98 µM) | 1 (≈ 2.98 µM) | 1 (≈ 2.98 µM) | 0.5 (≈ 1.49 µM) | > 64 | > 64 | > 64 | – | – | – | – | – | – | – | – | – | – | – |
| CC(=O)NC[C@H]1CN(c2ccc3c(c2)oc(=S)n3C)C(=O)O1 [Example 43] | 0.25 (≈ 0.778 µM) | 0.25 (≈ 0.778 µM) | 0.125 (≈ 0.389 µM) | 0.125 (≈ 0.389 µM) | – | > 64 | > 64 | – | – | – | – | – | – | > 32 | – | – | – | – |
| COP(=O)(NC[C@H]1CN(c2ccc3c(c2)sc(=O)n3C)C(=O)O1)OC [Example 17] | – | – | – | – | > 64 | > 64 | > 64 | – | – | – | – | – | – | – | 8 (≈ 20.7 µM) | 8 (≈ 20.7 µM) | 8 (≈ 20.7 µM) | 8 (≈ 20.7 µM) |
| CC(=O)NC[C@H]1CN(c2ccc3[nH]c(=O)oc3c2)C(=O)O1 [Example 24] | – | 16 (≈ 54.9 µM) | 16 (≈ 54.9 µM) | 16 (≈ 54.9 µM) | > 64 | > 64 | > 64 | – | – | – | – | – | – | – | 8 (≈ 27.5 µM) | – | – | – |
| CC(=O)NC[C@H]1CN(c2ccc3c(c2)sc(=O)n3C)C(=O)O1 [Example 18] | 0.25 (≈ 0.778 µM) | 0.25 (≈ 0.778 µM) | 0.25 (≈ 0.778 µM) | 0.06 (≈ 0.187 µM) | > 64 | > 64 | > 64 | 0.25 (≈ 0.778 µM) | 0.25 (≈ 0.778 µM) | 0.25 (≈ 0.778 µM) | 1 (≈ 3.11 µM) | 1 (≈ 3.11 µM) | 0.5 (≈ 1.56 µM) | – | – | – | – | – |
| CC(=O)NC[C@H]1CN(c2ccc3c(c2)oc(=O)n3C(C)C)C(=O)O1 [Example 47] | 0.5 (≈ 1.5 µM) | 0.5 (≈ 1.5 µM) | 0.5 (≈ 1.5 µM) | 0.25 (≈ 0.75 µM) | – | 64 (≈ 192 µM) | > 64 | – | – | – | – | – | – | 32 (≈ 96 µM) | – | – | – | – |
| CC(=O)NC[C@H]1CN(c2ccc3c(c2)oc(=O)n3C)C(=O)O1 [Example 37] | 1 (≈ 3.28 µM) | 1 (≈ 3.28 µM) | 1 (≈ 3.28 µM) | 0.5 (≈ 1.64 µM) | – | 64 (≈ 210 µM) | 64 (≈ 210 µM) | – | – | – | – | – | – | 16 (≈ 52.4 µM) | – | – | – | – |
| CCCCCn1c(=O)oc2cc(N3C[C@H](CNC(C)=O)OC3=O)ccc21 [Example 84] | 1 (≈ 2.77 µM) | 1 (≈ 2.77 µM) | 1 (≈ 2.77 µM) | 0.5 (≈ 1.38 µM) | 64 (≈ 177 µM) | > 64 | > 64 | – | – | – | – | – | – | – | – | – | – | – |
| CCn1c(=S)sc2cc(N3C[C@H](CNC(C)=O)OC3=O)ccc21 [Example 44] | 0.5 (≈ 1.42 µM) | 0.5 (≈ 1.42 µM) | 0.5 (≈ 1.42 µM) | 0.5 (≈ 1.42 µM) | > 64 | > 64 | > 64 | – | – | – | – | – | – | – | – | – | – | – |
| CCC(=O)NC[C@H]1CN(c2ccc3c(c2)sc(=O)n3C)C(=O)O1 [Example 56] | 0.5 (≈ 1.49 µM) | 0.5 (≈ 1.49 µM) | 0.5 (≈ 1.49 µM) | 0.25 (≈ 0.745 µM) | 64 (≈ 191 µM) | > 64 | > 64 | 1 (≈ 2.98 µM) | 1 (≈ 2.98 µM) | 0.25 (≈ 0.745 µM) | 1 (≈ 2.98 µM) | 4 (≈ 11.9 µM) | 0.5 (≈ 1.49 µM) | – | – | – | – | – |
| CC(=O)NC[C@H]1CN(c2ccc3c(c2)oc(=O)n3Cc2ccccc2)C(=O)O1 [Example 38] | 4 (≈ 10.5 µM) | 4 (≈ 10.5 µM) | 4 (≈ 10.5 µM) | 1 (≈ 2.62 µM) | > 64 | > 64 | > 64 | – | – | – | – | – | – | – | – | – | – | – |
